Source: patent US12576107B2, “Methods of treating chronic inflammatory diseases” (METIMEDI PHARMACEUTICALS CO., LTD., priority 2018, dated 2026)

Key:
hypoxia-mediated factors = assay: Brain CID in vitro experiment, Western blot in SK-N-SH cells; type: cell-based; settings: 2.5 mM; SK-N-SH cells (human neuroblastoma); normoxia and hypoxia
Protocol: Human Brain cell line, SK-N-SH, was purchased from American Type Culture Collection (Manassas, VA, USA). The SK-N-SH cells were maintained in RPMI1640 containing 10% fetal bovine serum (Life Technologies, Gaithersburg, MD, USA), 100 IU/ml penicillin, and 100 μg/ml streptomycin (Welgene, Daegu, South Korea).
(§1) To prepare whole cell lysate, cells were lysed with lysis buffer (1% NP-40, 0.25% sodium deoxycholate, 150 mM NaCl, 1 mM EDTA, 1% Triton X-100, 50 mM Tris-HCl (pH 7.4), 10% Glycerol) with protease inhibitor cocktail (Roche, Basel, Switzerland) and phosphatase inhibitors (NA3VO4 1 mM, NaF 100 mM). Then, protein concentration was measured using the Bicinchoninic acid (BCA) assay kit (Thermo Scientific, Waltham, MA). Whole cell or nuclear lysates were transferred onto polyvinylidene fluoride membranes (Merck Millipore, Billerica, MA, USA). After blocking in 5% non-fat milk (Bio-Rad, Hercules, CA, USA) for 1 h, the membranes were incubated overnight at 4° C. with primary antibody diluted in TBST containing 100 mM Tris-HCl (pH 7.5), 1.5 M NaCl, and 0.5% Tween-20 obtained from Sigma-Aldrich, to which 5% BSA and 0.1% sodium azide (Sigma-Aldrich) had been added. Specific primary antibodies to HIF-1α (1:1000), HIF-2α (1:1000), LDH-A (1:1000), LDH-B (1:1000), TLR-4 (1:1000), NF-κB (1:1000), VEGF (1:1000), α-tubulin (1:1000), Actin (1:1000), and GAPDH (1:5000). […]

laser-induced AMD mice = assay: Laser-induced age-related macular degeneration (AMD) animal model; type: in vivo, C57BL/6 mice
Protocol: Six-week-old female C57BL/6 mice (20-25 g) were purchased from Orient (Charles River Korea, Seoul, Korea). All animals were maintained in a 12-hour light/dark cycle (light on, 08:00) at 22° C.-25° C. with free access to food and water. The mice were placed individually in an induction chamber, and anesthesia was induced with 2% isoflurane (HANA PHARM CO., Seoul, Korea). The lesions were induced in each eye of the mice by laser photocoagulation (SDL405-700, SD Laser, China). The laser pulses were from blue laser (wavelength, 405 nm; SD Laser). Laser parameters were 100 μm spot size, 700 mw power and 1 s exposure time. A total of 15 mice were randomized into three groups: (i) not subjected to laser induction (n=3); (ii) subjected to laser burns and injected with the vehicle buffer (n=5); and (iii) CaLa, 2 mg/kg/day (B.I.D) (n=7). CaLa treatment was started the days after laser photocoagulation and was treated subcutaneously for 14 days. (33, 34)
The histopathologic examination of retinal lesions was performed 2 weeks after 2 mg/kg of CaLa was administered subcutaneously. The enucleated eyes were fixed with 4% paraformaldehyde (PFA) for 24 h at 4° C., and eyes obtained by removing the anterior segments were washed three times in phosphate-buffered saline. The fixed flat-mounts were dehydrated in a graded series of ethanol and embedded in paraffin. […] The choroidal lesion and neovascularization on the flat-mounts were observed by confocal microscopy (Carl Zeiss, Oberkochen, Germany).
Animals. […] Six-week-old C57BL mice were purchased from Orient (Charles River Korea, Seoul, Korea). All animals were maintained in a 12-hour light/dark cycle (light on, 08:00) at 22-25° C. with free access to food and water.
Calcium lactate was purchased from Sigma Aldrich (St. Louis, MO, USA).
Animal model for ocular disease. The mice were placed individually in an induction chamber, and anesthesia was induced with 2% isoflurane (HANA PHARM CO., Seoul, Korea). The laser-induced rupture of Bruch's membrane was induced in both eyes of mice by laser photocoagulation (SDL405-700, SD Laser, China). […]

[1] = tested on: hypoxia inducible factor-1α (HIF-1α); assay: Liver fibrosis in vitro experiment, Western blot in LX-2 cells; type: cell-based; settings: 2.5 mM, LX-2 cells (human hepatic stellate cell)
Protocol: Human Hepatic Stellate cell line, LX-2, was purchased from Sigma-Aldrich (St Louis, MO, USA). The LX-2 cells were maintained in DMEM containing 2% fetal bovine serum (Life Technologies, Gaithersburg, MD, USA), 100 IU/ml penicillin, and 100 μg/ml streptomycin (Welgene, Daegu, South Korea).
as §1

CC(O)C(=O)[O-].CC(O)C(=O)[O-].[Ca+2] (centres unmarked) [calcium lactate]
hypoxia-mediated factors, Western blot (hypoxia-mediated factors): decreased | choroidal lesion (fluorescence, flat-mount) (laser-induced AMD mice; 2 mg/kg daily subcutaneous): restored | choroidal neovascularization (fluorescence, flat-mount) (laser-induced AMD mice; 2 mg/kg daily subcutaneous): restored | morphology of the retinal pigment epithelium (H&E) (laser-induced AMD mice; 2 mg/kg subcutaneous, choroidal flat-mount): recovered | hypoxia inducible factor-1α (HIF-1α), Western blot [1]: decreased
